Measurements published in patent US20020137929A1, “1 - (3-heterocyclylphenyl) isothiourea, -isourea, -guanidine and -amidine herbicidal agents” (Intellectual Property Department, BASF Aktiengesellschaft, priority 1998, published 2002).

Legend:
[1] = tested on: CASOB (Sicklepod); assay: Postemergence herbicidal evaluation; format: in vivo, Cassia obtusifolia; settings: postemergence
Summary of the method: (§1)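 Herbicidal effect was judged by eye on a 0–9 scale covering stand, vigor, deformity, size and chlorosis, compared with controls, four to five weeks after seedlings about two weeks old were sprayed (40 psi, ~0.0156–0.500 kg/ha).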

[2] = tested on: ORYSAT (Rice, Tebonnet); assay: Rice tolerance to post-transplant applications, flooded paddy conditions (Table IV); format: in vivo, Oryza sativa, (L.) Tebonnet; settings: in vivo
Summary of the method: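 Post-transplant paddy test in greenhouse: a.i. about 0.0313 to 0.500 kg/ha applied into the flood water. Plants are rated 0-9 for overall appearance relative to control three to four weeks on.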

[3] = tested on: IPOSS (Morningglory Spp.); assay: Postemergence herbicidal evaluation; format: in vivo, Ipomoea Spp.
Experimental: (§2) In the tests, seedling plants are grown in jiffy flats for about two weeks. The test compounds are dispersed in 50/50 acetone/water mixtures containing 0.5% TWEEN®20, a polyoxyethylene sorbitan monolaurate surfactant of Atlas Chemical Industries, in sufficient quantities to provide the equivalent of about 0.0156 kg to 0.500 kg per hectare of active compound when applied to the plants through a spray nozzle operating at 40 psi for a predetermined time. After spraying, the plants are placed on greenhouse benches and are cared for in accordance with conventional greenhouse procedures. From four to five weeks after treatment, the seedling plants are examined and rated according to the rating system set forth below. Where more than one test is involved for a given compound, the data are averaged.
(§3) Plant species employed in these evaluations are reported by header abbreviation, common name and scientific name.
(§4) Results of herbicide evaluation are expressed on a rating scale (0-9). The scale is based upon a visual observation of plant stand, vigor, malformation, size, chlorosis and overall plant appearance as compared with a control.

[4] = tested on: TRZAWR (Wheat, Winter, cv Riband); assay: Postemergence herbicidal evaluation; format: in vivo, Triticum aestivum; settings: postemergence
Summary of the method: as §1

[5] = tested on: MOOVA (Monochoria); assay: Postemergence weed control under flooded paddy conditions; format: in vivo, Monochoria vaginalis; settings: postemergence weeds, 3-4 weeks after treatment
Summary of the method: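 Herbicidal effect is judged by eye on a 0–9 scale versus control, 3–4 weeks after dosing. Dosing is into flood water kept 1.5–3 cm over the soil, at about 0.0313–0.500 kg/ha in aqueous/acetone 50/50 v/v, on 3–5 cm weeds and 1.5–2.5-leaf rice seedlings.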

[6] = tested on: ORYSAT (Rice, Tebonnet); assay: Rice tolerance to post-transplant applications, flooded paddy conditions (Table III); format: in vivo, Oryza sativa, (L.) Tebonnet; settings: in vivo
Summary of the method: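 Injury scored 0-9 by eye against untreated control, judging stand, vigor, malformation, size and chlorosis, three to four weeks after treatment. Compound in 50/50 aqueous/acetone, about 0.0313 to 0.500 kg/ha, was applied to paddy water (1.5 to 3 cm depth) three days after transplanting paired ten-day-old Tebonnet rice seedlings.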

[7] = tested on: CHEAL (Lambsquarters, Common); assay: Postemergence herbicidal evaluation; format: in vivo, Chenopodium album; settings: postemergence
Summary of the method: as §1

[8] = tested on: GLXMA (Soybean); assay: Postemergence herbicidal evaluation; format: in vivo, Glycine max
Experimental: as §2, §3, §4

[9] = tested on: IPOSS (Morningglory Spp.); assay: Preemergence herbicidal evaluation; format: in vivo, Ipomoea Spp.; settings: rated 4-5 weeks after treatment
Description: as §4
The preemergence herbicidal activity of the test compounds of the present invention is exemplified by the following tests in which the seeds of a variety of monocotyledonous and dicotyledonous plants are separately mixed with potting soil and planted on top of approximately one inch of soil in separate pint cups. After planting, the cups are sprayed with the selected aqueous acetone solution containing test compound in sufficient quantity to provide the equivalent of about 0.0156 to 0.500 kg per hectare of test compound per cup. The treated cups are then placed on greenhouse benches, watered and cared for in accordance with conventional greenhouse procedures. From four to five weeks after treatment, the tests are terminated and each cup is examined and rated according to the rating system provided in Example 37.
The compounds evaluated are reported by compound number given in Example 37.

[10] = tested on: ORYSAT (Rice, Tebonnet); assay: Preemergence herbicidal evaluation; format: in vivo, Oryza sativa, (L.) Tebonnet; settings: rated 4-5 weeks after treatment
Summary of the method: (§5)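 Each species is sown separately in potting soil over roughly an inch of soil before any emergence. The soil surface then receives an aqueous acetone spray delivering about 0.0156 to 0.500 kg/ha of compound. After four to five weeks, injury is scored from 0 to 9 relative to a control.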

[11] = tested on: CHEAL (Lambsquarters, Common); assay: Preemergence herbicidal evaluation; format: in vivo, Chenopodium album; settings: rated 4-5 weeks after treatment
Summary of the method: as §5

[12] = tested on: GLXMA (Soybean); assay: Preemergence herbicidal evaluation; format: in vivo, Glycine max; settings: rated 4-5 weeks after treatment
Summary of the method: as §5

Compound: CCC1SC(=Nc2cc(N3C(=O)C4=C(CCCC4)C3=O)c(F)cc2Cl)N(C)C1=O (stereo not drawn) [Compound 6, N-{4-chloro-5-[(5-ethyl-3-methyl-4-oxo-2-thiazolidinylidene)amino]-2-fluorophenyl}-1-cyclohexene-1,2-dicarboximide]
- CASOB herbicidal rating ([1]; rate 0.0157 kg/ha): 0.0
- CASOB herbicidal rating ([1]; rate 0.0313 kg/ha): 0.0
- CASOB herbicidal rating ([1]; rate 0.0625 kg/ha): 0.0
- CASOB herbicidal rating ([1]; rate 0.1250 kg/ha): 0.0
- CASOB herbicidal rating ([1]; rate 0.2500 kg/ha): 2.0
- CASOB herbicidal rating ([1]; rate 0.5000 kg/ha): 6.0
- Herbicidal rating ORYSAT (rice tolerance) [2]: 0.0
- IPOSS herbicidal rating ([3]; rate 0.0157 kg/ha): 0.0
- IPOSS herbicidal rating ([3]; rate 0.0313 kg/ha): 0.0
- IPOSS herbicidal rating ([3]; rate 0.0625 kg/ha): 0.0
- IPOSS herbicidal rating ([3]; rate 0.1250 kg/ha): 2.0
- IPOSS herbicidal rating ([3]; rate 0.2500 kg/ha): 4.0
- IPOSS herbicidal rating ([3]; rate 0.5000 kg/ha): 9.0
- TRZAWR herbicidal rating ([4]; rate 0.0157 kg/ha): 2.5
- TRZAWR herbicidal rating ([4]; rate 0.0313 kg/ha): 2.5
- TRZAWR herbicidal rating ([4]; rate 0.0625 kg/ha): 3.0
- TRZAWR herbicidal rating ([4]; rate 0.1250 kg/ha): 3.0
- TRZAWR herbicidal rating ([4]; rate 0.2500 kg/ha): 3.5
- TRZAWR herbicidal rating ([4]; rate 0.5000 kg/ha): 3.5
- Herbicidal rating MOOVA ([5]; rate 0.0313 kg/ha): 1.0
- Herbicidal rating MOOVA ([5]; rate 0.0625 kg/ha): 4.0
- Herbicidal rating MOOVA ([5]; rate 0.1250 kg/ha): 4.0
- Herbicidal rating MOOVA ([5]; rate 0.2500 kg/ha): 4.5
- Herbicidal rating MOOVA ([5]; rate 0.5000 kg/ha): 4.5
- Herbicidal rating ORYSAT (rice tolerance) [6]: 0.0
- CHEAL herbicidal rating ([7]; rate 0.0157 kg/ha): 0.0
- CHEAL herbicidal rating ([7]; rate 0.0313 kg/ha): 0.0
- CHEAL herbicidal rating ([7]; rate 0.0625 kg/ha): 2.0
- CHEAL herbicidal rating ([7]; rate 0.2500 kg/ha): 6.0
- CHEAL herbicidal rating ([7]; rate 0.5000 kg/ha): 9.0
- GLXMA herbicidal rating ([8]; rate 0.0157 kg/ha): 3.0
- GLXMA herbicidal rating ([8]; rate 0.0313 kg/ha): 3.0
- GLXMA herbicidal rating ([8]; rate 0.0625 kg/ha): 3.0
- GLXMA herbicidal rating ([8]; rate 0.1250 kg/ha): 3.5
- GLXMA herbicidal rating ([8]; rate 0.2500 kg/ha): 4.0
- GLXMA herbicidal rating ([8]; rate 0.5000 kg/ha): 4.0
- IPOSS preemergence herbicidal rating ([9]; rate 0.1250 kg/ha): 0.0
- IPOSS preemergence herbicidal rating ([9]; rate 0.2500 kg/ha): 0.0
- IPOSS preemergence herbicidal rating ([9]; rate 0.5000 kg/ha): 0.0
- ORYSAT preemergence herbicidal rating ([10]; rate 0.1250 kg/ha): 0.0
- ORYSAT preemergence herbicidal rating ([10]; rate 0.2500 kg/ha): 0.0
- ORYSAT preemergence herbicidal rating ([10]; rate 0.5000 kg/ha): 0.0
- CHEAL preemergence herbicidal rating ([11]; rate 0.1250 kg/ha): 2.0
- CHEAL preemergence herbicidal rating ([11]; rate 0.2500 kg/ha): 4.0
- CHEAL preemergence herbicidal rating ([11]; rate 0.5000 kg/ha): 9.0
- GLXMA preemergence herbicidal rating ([12]; rate 0.1250 kg/ha): 0.0
- GLXMA preemergence herbicidal rating ([12]; rate 0.2500 kg/ha): 0.0
- GLXMA preemergence herbicidal rating ([12]; rate 0.5000 kg/ha): 0.0
